Experimental data published in US20220356232A1, “A COMBINATION OF PLASMA IMMUNOGLOBULIN AND ANTIGEN-SPECIFIC IMMUNOGLOBULIN FOR THE MODIFICATION OF THE IMMUNE SYSTEM AND THE TREATMENT OR PREVENTION OF AUTOIMMUNE DISEASES” (Network Immunology Inc., priority 2019, published 2022).

What was measured:
Type in all cases: in vivo, C57BL/6 mice
[1] = system: DSS-induced acute colitis; test: DSS-induced acute colitis (Example 6); conditions: 3% DSS 7 days; treatment from time of DSS exposure; FIGS. 12A-12C
Text: Wild-type (WT) C57BL/6 female mice, with high susceptibility to DSS-induced colitis, were used throughout and purchased from the Jackson laboratories (Bar Harbor, Me.). All mice were housed five per cage under specific pathogen-free conditions, allowed standard diet and water ad libitum, and used at 6-8 wk of age. Acute DSS colitis was induced by giving mice distilled drinking water containing 3% (wt./vol) DSS (Mol.Wt.=40 kDa; ICN Biochemicals, Aurora, Ohio) for 7 days. For induction of chronic colitis, mice were treated with 5 days of 2.5% DSS followed by 7 days of normal drinking water for a total of 3 cycles. Body weight was measured three times/week throughout the experiment. The maximum mortality observed following induction of acute colitis was 15% averaged over all studies, while no significant mortality was seen any groups in the chronic colitis model. Maximum weight loss in either model was ˜25%. […] In FIG. 12A, changes in body weight are expressed as a percent weight loss from baseline and plotted versus time post initiation of DSS treatment (x-axis). […] In FIGS. 12B and 12C, changes in colon length and 24 hr cytokine production from colon explant cultures respectively were assessed on day 9 following initiation of DSS treatment for mice shown in FIG. 12A and are expressed as mean±SD.

[2] = system: DSS-induced chronic colitis; test: DSS-induced chronic colitis: body weight and colon length (Example 6)
[3] = system: colonic explants from mice with chronic colitis; test: Cytokine release from 24 hr colonic explant cultures, chronic colitis (Example 6); conditions: 24 hr colonic explant cultures harvested at 38 d; FIG. 8
[4] = system: PP cells isolated from colonic tissue; test: FACS staining of CD3+ and Foxp3+ cells in PP cells isolated from colonic tissue, chronic colitis; conditions: DSS chronic colitis, treatment as per FIG. 7A
[5] = system: DSS-induced chronic colitis; test: Effect of T depletion (anti-CD4 mAb) on protection from DSS-induced chronic colitis; conditions: no anti-CD4 mAb

With `C[C@]12CCC(=O)C=C1CC[C@@H]1[C@@H]2[C@@H](O)C[C@@]2(C)[C@H]1CC[C@]2(O)C(=O)COC(=O)CCC(=O)O` [Solu-Cortef] the “protection from pathology of acute colitis (weight loss, colon length, production of inflammatory cytokines)” value [1] was “protected”, the “weight loss in second and third cycle of DSS treatment” value ([2]; Ig weekly ×5 im from start of first DSS cycle, Solu-Cortef 6 μg/mouse alternate days, FIG. 7A) was “attenuation of weight loss” and the “suppression of disease in chronic colitis” value ([2]; all DSS cycles, 6 μg/mouse on alternate days) was “active in suppressing disease at all times”. For the same compound, the “release of inflammatory cytokines IFNγ, TNFα, IL-1β, IL-17 and IL-6” value [3] was “No such increased inflammatory cytokine release”, the “% Ant-CD3” value ([4]; PP cells from 2-3 mice/group) was 4.4 ± 2.2% and the “% Anti-Foxp3” value ([4]; PP cells from 2-3 mice/group) was 0.2 ± 0.2%. For the same compound, the “Foxp3:CD3” value ([4]; ratio, PP cells) was 0.04, the “weight loss after induction of chronic colitis” value ([5]; 5 mice/group, FIG. 9A) was “protected” and the “release of inflammatory cytokines from colon explant cultures” value ([5]; FIG. 10) was “attenuation of release”.
